Results reported in US11312688B2, “Pyrazole compound” (Sumitomo Dainippon Pharma Co., Ltd., priority 2011, dated 2022).

Each molecule was assayed against human serotonin transporter (h-SERT) (Homo sapiens (Human), UniProt P31645) (assay: [3H] citalopram binding assay to evaluate human serotonin reuptake inhibitory action (h-SERT binding assay)). Settings: h-SERT binding inhibition constant Ki, Test Ex. 1.

Row | Molecule | Ki [µM]
1 | CNCc1cc(OCc2cc(Cl)ccc2F)n(CC2CCCCO2)n1 (single isomer, unassigned; (+)) [Example 475, (+)-1-{5-[(5-chloro-2-fluorobenzyl)oxy]-1-(tetrahydro-2H-pyran-2-ylmethyl)-1H-pyrazol-3-yl}-N-methylmethanamine] | 0.0092
2 | CNCc1cc(OCc2cc(Cl)ccc2F)n(CC2CCCCO2)n1 (single isomer, unassigned; (-)) [Example 474, (−)-1-{5-[(5-chloro-2-fluorobenzyl)oxy]-1-(tetrahydro-2H-pyran-2-ylmethyl)-1H-pyrazol-3-yl}-N-methylmethanamine] | 0.011

What follows are molecules tested against T1, human serotonin 2C receptor (h-5-HT2C) (Homo sapiens (Human), UniProt P28335) (assay: [3H] mesulergine binding assay to evaluate affinity for human 5-HT2C receptor). Settings: Test Ex. 2, h-5-HT2C/CHO membrane preparation, read-out: 5-HT2C receptor binding inhibition constant Ki.
T1 sequence (P28335 whole entry, looked up): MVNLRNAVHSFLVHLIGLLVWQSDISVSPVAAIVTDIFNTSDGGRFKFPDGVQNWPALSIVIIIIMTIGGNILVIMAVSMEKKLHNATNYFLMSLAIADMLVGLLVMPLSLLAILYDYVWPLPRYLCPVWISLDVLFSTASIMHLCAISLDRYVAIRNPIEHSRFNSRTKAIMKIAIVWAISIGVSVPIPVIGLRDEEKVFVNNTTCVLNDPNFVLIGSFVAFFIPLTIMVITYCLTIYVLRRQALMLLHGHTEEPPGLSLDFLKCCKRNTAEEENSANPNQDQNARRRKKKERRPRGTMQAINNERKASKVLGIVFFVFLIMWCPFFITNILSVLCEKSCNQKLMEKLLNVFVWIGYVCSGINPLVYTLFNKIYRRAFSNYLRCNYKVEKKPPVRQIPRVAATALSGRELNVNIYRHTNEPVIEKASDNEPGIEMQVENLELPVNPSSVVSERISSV

Row | Molecule | Ki [µM]
3 | CNCc1cc(OCc2cc(Cl)ccc2F)n(CC2CCCCO2)n1 (single isomer, unassigned; (+)) [Example 475, (+)-1-{5-[(5-chloro-2-fluorobenzyl)oxy]-1-(tetrahydro-2H-pyran-2-ylmethyl)-1H-pyrazol-3-yl}-N-methylmethanamine] | 0.019
4 | CNCc1cc(OCc2cc(Cl)ccc2F)n(CC2CCCCO2)n1 (single isomer, unassigned; (-)) [Example 474, (−)-1-{5-[(5-chloro-2-fluorobenzyl)oxy]-1-(tetrahydro-2H-pyran-2-ylmethyl)-1H-pyrazol-3-yl}-N-methylmethanamine] | 0.016

Each molecule was assayed against T1, human serotonin 2C receptor (h-5-HT2C) (assay: 5-HT2C receptor agonistic action assay (FLIPR Calcium 4, h-5-HT2C/CHO cells; agonistic / inverse agonistic action)). Settings: not given.
Format: cell-based
Description: 3-1. The Cells and Inoculation Thereof
In the experiment, human serotonin 2C receptor (h-5-HT2C) was expressed in CHO cells (h-5-HT2C/CHO). The cells were incubated with UltraCHO Lipuid (trademark) (manufactured by BioWhitakker) containing 1% FBS, 400 μg/mL Geneticin, 100 U/mL penicillin-100 μg/mL streptomycin (all manufactured by Sigma Aldrich) and 250 μg/mL Zeosin (manufactured by InvivoGen) in an incubator containing 5% CO2. On the day before using the cells, they were detached and collected using 250 μg/mL Trypsin solution (manufactured by Nacalai Tesque), then inoculated in a 96 well flat clear bottom black polystyrene TC-treated microplates (manufactured by Corning) at 40000 cells/well/60 μL in an incubator containing 5% CO2 for 16 hours to 24 hours.
3-2. 5-HT2C Receptor Agonistic Action Assay
The 5-HT2C receptor agonistic action was evaluated with FLIPR Calcium 4 Assay kit (manufactured by Molecular Devices). In specific, to the cells inoculated in the plate were added Component A of FLIPR Calcium 4 Assay kit dissolved in 100 mL of HHBP buffer (1×Hanks buffer, 20 mmol/L HEPES, both manufactured by Gibco) at an amount of 40 μL/well, and the cells were incubated in an incubator containing 5% CO2 for 1 hour. Then, the cells were set in FLIPR TETRA (trademark) (manufactured by Molecular Devices), to the cells was added the test material diluted with HHBP buffer, 2.5 mmol/L Probenecid (manufactured by Sigma) (concentration after dilution: 10 μmol/L) at an amount of 20 μL/well, and the fluorescence was measured. Then, in order to evaluate the antagonistic action of the test material, 20 μL/well of 5-HT solution (manufactured by Sigma, final concentration: 0.1 nmol/L) was further added to the cells, and the fluorescence was measured.
The 5-HT2C receptor agonistic action of each test material was calculated as a rate of fluorescence enhancement wherein 100% was defined as a value when the cells were given 10 μmol/L 5-HT. Furthermore, the 5-HT2C receptor inverse agonistic action was calculated as a rate of fluorescence decay wherein −100% was defined as a value when the cells were given 10 μmol/L SB206553 (manufactured by Sigma Aldrich). A lower value of the 5-HT2C receptor agonistic action of the test material means that the material has a higher antagonistic action. In particular, when the value of the 5-HT2C receptor agonistic action of the test material is below 0%, the material has an inverse agonistic action for 5-HT2C receptor.

Row | Molecule | 5-HT2C receptor agonistic action [%]
5 | CNCc1cc(OCc2cc(Cl)ccc2F)n(CC2CCCCO2)n1 (single isomer, unassigned; (+)) [Example 475, (+)-1-{5-[(5-chloro-2-fluorobenzyl)oxy]-1-(tetrahydro-2H-pyran-2-ylmethyl)-1H-pyrazol-3-yl}-N-methylmethanamine] | −95
6 | CNCc1cc(OCc2cc(Cl)ccc2F)n(CC2CCCCO2)n1 (single isomer, unassigned; (-)) [Example 474, (−)-1-{5-[(5-chloro-2-fluorobenzyl)oxy]-1-(tetrahydro-2H-pyran-2-ylmethyl)-1H-pyrazol-3-yl}-N-methylmethanamine] | −111
7 | CNCc1cc(OCc2cccc(OC)c2)n(CC2CCCCC2)n1 [Compound 42] | −106
8 | CNCc1cc(OCc2ccc(F)cc2C)n(CC2CCCCO2)n1 (stereo not drawn) [Compound 108] | −117
9 | CNCc1cc(OCc2cc(Cl)ccc2F)n(CCC(C)OC)n1 (stereo not drawn) [Compound 405] | −90
10 | CNCc1cc(OCc2cc(Cl)ccc2F)n(CC2(OC)CCCCC2)n1 [Compound 434] | −87
11 | CNCc1cc(OCc2ccccc2)n(CCCc2ccccc2)n1 [Example 3, 1-[5-(Benzyloxy)-1-(3-phenylpropyl)-1H-pyrazol-3-yl]-N-methylmethanamine] | −91
12 | CNCc1cc(OCc2ccccc2)n(CC2CCCCC2)n1 [Example 5, 1-[5-(Benzyloxy)-1-(cyclohexylmethyl)-1H-pyrazol-3-yl]-N-methylmethanamine] | −91
13 | CNCc1cc(OCc2ccc(F)cc2F)n(CC2CCCC2)n1 [Example 144, 1-{1-(cyclopentylmethyl)-5-[(2,4-difluorobenzyl)oxy]-1H-pyrazol-3-yl}-N-methylmethanamine] | −127
14 | CNCc1cc(OCc2ccccc2F)n(Cc2ccc(F)cc2)n1 [Example 218, 1-{1-(4-fluorobenzyl)-5-[(2-fluorobenzyl)oxy]-1H-pyrazol-3-yl}-N-methylmethanamine] | −111
15 | CNCc1cc(OCc2cc(Cl)ccc2F)n(CCC(C)(C)OC)n1 [Example 275, 1-{5-[(5-chloro-2-fluorobenzyl)oxy]-1-(3-methoxy-3-methylbutyl)-1H-pyrazol-3-yl}-N-methylmethanamine] | −88
16 | CNCc1cc(OCc2ccccc2)n(C(C)C2CCCC2)n1.Cl (stereo not drawn) [Example 288, 1-[5-(Benzyloxy)-1-(1-cyclopentylethyl)-1H-pyrazol-3-yl]-N-methylmethanamine Hydrochloride] | −80
17 | CNCc1cc(OCc2ccccc2)n(C(CO)C2CCCCC2)n1.Cl (stereo not drawn) [Example 328, 2-{5-(Benzyloxy)-3-[(methylamino)methyl]-1H-pyrazol-1-yl}-2-cyclohexyl-ethanol Hydrochloride] | −116
18 | CNCc1cc(OCc2ccccc2)n(C(CF)C2CCCCC2)n1.Cl (stereo not drawn) [Example 330, 1-[5-(Benzyloxy)-1-(1-cyclohexyl-2-fluoroethyl)-1H-pyrazol-3-yl]-N-methylmethanamine Hydrochloride] | −82
19 | CNCc1cc(OCc2cccc(Cl)c2)n(CC2CCc3ccccc3O2)n1.Cl (stereo not drawn) [Example 341, 1-{5-[(3-Chlorobenzyl)oxy]-1-(3,4-dihydro-2H-chromen-2-yl-methyl)-1H-pyrazol-3-yl}-N-methylmethanamine Hydrochloride] | −71
20 | CCNCc1cc(OCc2cc(F)ccc2F)n(CC2CCCCC2)n1 [Example 344, N-({1-(Cyclohexylmethyl)-5-[(2,5-difluorobenzyl)oxy]-1H-pyrazol-3-yl}methyl)ethanamine] | −82
21 | Cl.NCc1cc(OCc2cc(F)ccc2F)n(CC2CCCC2)n1 [Example 347, 1-{1-(Cyclopentylmethyl)-5-[(2,5-difluorobenzyl)oxy]-1H-pyrazol-3-yl}methanamine Hydrochloride] | −114
22 | CNCc1cc(OC(F)(F)c2ccccc2)n(CC2CCCCC2)n1.Cl [Example 349, 1-{1-(Cyclohexylmethyl)-5-[difluoro(phenyl)methoxy]-1H-pyrazol-3-yl}-N-methylmethanamine Hydrochloride] | −82
23 | CNCc1cc(OC(C)c2cccc(Cl)c2)n(CC2CCCCC2)n1.Cl (stereo not drawn) [Example 350, 1-{5-[1-(3-Chlorophenyl)ethoxy]-1-(cyclohexylmethyl)-1H-pyrazol-3-yl}-N-methylmethanamine Hydrochloride] | −92
24 | CNCc1cc(SCc2ccccc2)n(Cc2ccccc2)n1.Cl [Example 355, 1-[1-Benzyl-5-(benzylsulfanyl)-1H-pyrazol-3-yl]-N-methylmethanamine Hydrochloride] | −72
25 | CNCc1cc(OCc2cc(F)c(F)cc2F)n(CCC2CC2)n1 [Example 426] | −99
26 | CNCc1cc(OCc2cc(Cl)ccc2F)n(CCC2(O)CCCC2)n1.Cl [Example 435, 1-(2-{5-[(5-Chloro-2-fluorobenzyl)oxy]-3-[(methylamino)-methyl]-1H-pyrazol-1-yl}ethyl)cyclopentanol Hydrochloride] | −125
27 | CNCc1cc(OCc2cc(F)ccc2F)n(CCC(C)(C)F)n1.Cl [Example 481, 1-{5-[(2,5-Difluorobenzyl)oxy]-1-(3-fluoro-3-methylbutyl)-1H-pyrazol-3-yl}-N-methylmethanamine Hydrochloride] | −109
28 | CNCc1cc(OCc2cc(Cl)ccc2F)n(CCC(C)(C)F)n1.Cl [Example 482, 1-{5-[(5-Chloro-2-fluorobenzyl)oxy]-1-(3-fluoro-3-methylbutyl)-1H-pyrazol-3-yl}-N-methylmethanamine Hydrochloride] | −116
29 | N-Benzyl-1-(cyclohexylmethyl)-3-[(methyl]-1H-pyrazol-5-amine Dihydrochloride [Example 357] | −120

Same assay, conditions: Test Ex. 3; test material 10 μmol/L; 100% = 10 μmol/L 5-HT, −100% = 10 μmol/L SB206553; below 0% = inverse agonistic action

Row | 5-HT2C receptor agonistic action [%] | Molecule
30 | −94 | CNC(C)c1cc(OCc2cc(F)ccc2F)n(CCC2CCCC2)n1 (single isomer, unassigned; (+)) [Example 477, (+)-1-{1-(2-cyclopentylethyl)-5-[(2,5-difluorobenzyl)-oxy]-1H-pyrazol-3-yl}-N-methylethanamine]
31 | −72 | CNC(C)c1cc(OCc2cc(F)ccc2F)n(CCC2CCCC2)n1 (single isomer, unassigned; (-)) [Example 476, (−)-1-{1-(2-cyclopentylethyl)-5-[(2,5-difluorobenzyl)-oxy]-1H-pyrazol-3-yl}-N-methylethanamine]
32 | −97 | CNCc1cc(OCc2cc(Cl)ccc2F)n(CC(C)C)n1 [Example 256, 1-{5-[(5-chloro-2-fluorobenzyl)oxy]-1-(2-methylpropyl)-1H-pyrazol-3-yl}-N-methylmethanamine]
33 | −119 | CNCc1cc(OCc2cc(Cl)ccc2F)n(CC(C)(C)C)n1 [Example 259, 1-{5-[(5-chloro-2-fluorobenzyl)oxy]-1-(2,2-dimethylpropyl)-1H-pyrazol-3-yl}-N-methylmethanamine]
34 | −84 | CNC(C)c1cc(OCc2cc(F)ccc2F)n(CCC2CCCC2)n1 (stereo not drawn) [Example 315, 1-{1-(2-cyclopentylethyl)-5-[(2,5-difluorobenzyl)oxy]-1H-pyrazol-3-yl}-N-methylethanamine]

Row | Molecule | 5-HT2C receptor agonistic action [%]
35 | CCC(CC)n1nc(CNC)cc1OCc1ccc(F)cc1Cl [Example 253] | −86
36 | CNCc1cc(OCc2cc(F)ccc2F)n(CCC(C)(C)C)n1 [Example 266, 1-{5-[(2,5-difluorobenzyl)oxy]-1-(3,3-dimethylbutyl)-1H-pyrazol-3-yl}-N-methylmethanamine] | −86
